Source: patent US8133884B2, “Compounds for the treatment of hepatitis C” (priority 2008, dated 2012)

Experiments:
[1] = test system: HCV replicon; test: HCV replicon assay (FRET or luciferase reporter); assay type: cell-based; conditions: one of the methods described
Excerpt: To perform the HCV FRET screening assay, 96-well cell culture plates were used, The FRET peptide (Anaspec, Inc.) (Taliani et al., Anal. Biochem., 240:60-67 (1996)) contains a fluorescence donor, EDANS, near one end of the peptide and an acceptor, DABCYL, near the other end. The fluorescence of the peptide is quenched by […] resonance energy transfer (RET) between the donor and the acceptor, but as the NS3 protease cleaves the peptide the products are released from RET quenching and the fluorescence of the donor becomes apparent. The assay reagent was made as follows: 5× cell Luciferase cell culture lysis reagent from Promega (#E153A) diluted to 1× with dH2O, NaCl added to 150 mM final, the FRET peptide diluted to 20 μM final from a 2 mM stock.
To prepare plates, HCV replicon cells, with or without a Renilla luciferase reporter gene, were trypsinized and placed into each well of a 96-well plate with titrated test compounds added in columns 3 through 12; columns 1 and 2 contained a control compound (HCV protease inhibitor), and the bottom row contained cells without compound. The plates were then placed in a CO2 incubator at 37° C.
Subsequent to addition of the test compounds described above (FRET Assay Preparation), at various times the plate was removed and Alamar blue solution (Trek Diagnostics, #00-100) was added per well as a measure of cellular toxicity. After reading in a CYTOFLUOR® 4000 instrument (PE Biosystems), plates were rinsed with PBS and then used for FRET assay by the addition of 30 ul of the FRET peptide assay reagent described above (FRET Assay Preparation) per well. The plate was then placed into the CYTOFLUOR® 4000 instrument which had been set to 340 excite/490 emission, automatic mode for 20 cycles and the plate read in a kinetic mode. Typically, the signal to noise using an endpoint analysis after the reads was at least three-fold. Alternatively, after Alamar blue reading, plates were rinsed with PBS, 50 ul of DMEM (high glucose) without phenol red was added and plates were then used for luciferase assay using the Promega DUAL-GLO® Luciferase Assay System.
Compound analysis was determined by quantification of the relative HCV replicon inhibition and the relative cytotoxicity values. To calculate cytoxicity values, the average Alamar Blue fluorescence signals from the control wells were set as 100% non-toxic. The individual signals in each of the compound test wells were then divided by the average control signal and multiplied by 100% to determine […]. To calculate the HCV replicon inhibition values, an average background value was obtained from the two wells containing the highest amount of HCV protease inhibitor at the end of the assay period. These numbers were similar to those obtained from naïve Huh-7 cells.
The background numbers were then subtracted from the average signal obtained from the control wells and this number was used as 100% activity. The individual signals in each of the compound test wells were then divided by the averaged control values after background subtraction and multiplied by 100% to determine percent activity. EC50 values for a protease inhibitor titration were calculated as the concentration which caused a 50% reduction in FRET or luciferase activity. The two numbers generated for the compound plate, percent cytoxicity and percent activity were used to determine compounds of interest for further analysis.
The HCV replicon luciferase assay was developed to monitor the inhibitory effects of compounds described in the disclosure on HCV viral replication. Utilization of a replicon luciferase reporter assay was first described by Krieger et al (Krieger, N. et al., J. Virology, 75(10):4614-4624 (2001)). HUH-7 cells, constitutively expressing the HCV replicon, were grown in Dulbecco's Modified Eagle Media (DMEM) (Gibco-BRL) containing 10% Fetal calf serum (FCS) (Sigma) and 1 mg/ml G418 (Gibco-BRL). […]

[2] = target: T1, HCV NS5B (Hepatitis C virus genotype 1b, UniProt Q9WMX2); test: Modified HCV NS5B RdRp enzyme assay (preincubation protocol); assay type: biochemical
T1 construct: The protein was expressed with an 18 amino acid C-terminal truncation to enhance the solubility; made in house; host or cells: E. coli BL21(DE3)
T1 sequence (Q9WMX2 2420-2992): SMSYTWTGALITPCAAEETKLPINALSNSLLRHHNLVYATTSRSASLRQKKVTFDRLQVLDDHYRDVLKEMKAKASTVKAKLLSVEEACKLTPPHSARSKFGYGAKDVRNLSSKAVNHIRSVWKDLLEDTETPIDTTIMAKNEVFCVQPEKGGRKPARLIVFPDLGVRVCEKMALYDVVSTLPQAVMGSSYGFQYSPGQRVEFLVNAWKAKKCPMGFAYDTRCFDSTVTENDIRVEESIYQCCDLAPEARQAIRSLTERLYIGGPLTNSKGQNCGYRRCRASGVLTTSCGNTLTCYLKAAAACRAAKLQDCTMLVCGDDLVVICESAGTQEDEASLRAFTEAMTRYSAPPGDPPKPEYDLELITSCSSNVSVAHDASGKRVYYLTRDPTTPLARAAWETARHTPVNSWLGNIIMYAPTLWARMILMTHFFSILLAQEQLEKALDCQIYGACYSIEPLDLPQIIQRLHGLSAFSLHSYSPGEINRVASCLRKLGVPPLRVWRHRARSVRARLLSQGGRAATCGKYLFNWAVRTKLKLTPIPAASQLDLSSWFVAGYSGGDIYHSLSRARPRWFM
Experimental: The cDNA encoding the NS5B protein of HCV, genotype 1b, was cloned into the pET21a expression vector. The protein was expressed with an 18 amino acid C-terminal truncation to enhance the solubility. The E. coli competent cell line BL21(DE3) was used for expression of the protein. Cultures were grown at 37° C. for ˜4 hours until the cultures reached an optical density of 2.0 at 600 nm. The cultures were cooled to 20° C. and induced with 1 mM IPTG. Fresh ampicillin was added to a final concentration of 50 μg/ml and the cells were grown overnight at 20° C.
Cell pellets (3 L) were lysed for purification to yield 15-24 mgs of purified NS5B. The lysis buffer consisted of 20 mM Tris-HCl, pH 7.4, 500 mM NaCl, 0.5% triton X-100, 1 mM DTT, 1 mM EDTA, 20% glycerol, 0.5 mg/ml lysozyme, 10 mM MgCl2, 15 ug/ml deoxyribonuclease I, and Complete TM protease inhibitor tablets (Roche). After addition of the lysis buffer, frozen cell pellets were resuspended using a tissue homogenizer. To reduce the viscosity of the sample, aliquots of the lysate were sonicated on ice using a microtip attached to a Branson sonicator. The sonicated lysate was centrifuged at 100,000×g for 1 hr at 4° C. and filtered through a 0.2 μm filter unit (Corning).
The protein was purified using three sequential chromatography steps: Heparin sepharose CL-6B, polyU sepharose 4B, and […] SP sepharose (Pharmacia). The chromatography buffers were identical to the lysis buffer but contained no lysozyme, deoxyribonuclease I, MgCl2 or protease inhibitor and the NaCl concentration of the buffer was adjusted according to the requirements for charging the protein onto the column. Each column was eluted with a NaCl gradient which varied in length from 5-50 column volumes depending on the column type. After the final chromatography step, the resulting purity of the enzyme is >90% based on SDS-PAGE analysis. The enzyme was aliquoted and stored at −80° C.
HCV RdRp genotype 1b assays were run in a final volume of 60 μl in 96 well plates (Costar 3912). The assay buffer is composed of 20 mM Hepes, pH 7.5, 2.5 mM KCl, 2.5 mM MgCl2, 1 mM DTT, 1.6 U RNAse inhibitor (Promega N2515), 0.1 mg/ml BSA (Promega R3961), and 2% glycerol. All compounds were serially diluted (3-fold) in DMSO and diluted further in water such that the final concentration of DMSO in the assay was 2%. HCV RdRp genotype 1b enzyme was used at a final concentration of 28 nM. A polyA template was used at 6 nM, and a biotinylated oligo-dT12 primer was used at 180 nM final concentration. Template was obtained commercially (Amersham 27-4110). Biotinylated primer was prepared by Sigma Genosys. 3H-UTP was used at 0.6 μCi (0.29 μM total UTP). Reactions were initiated by the addition of enzyme, incubated at 30° C. for 60 min, and stopped by adding 25 μl of 50 mM EDTA containing SPA beads (4 μg/μl, Amersham RPNQ 0007). Plates were read on a Packard TOPCOUNT® NXT after >1 hr incubation at room temperature.
A modified enzyme assay was performed essentially as described for the standard enzyme assay except for the following: The biotinylated oligo dT12 primer was precaptured on streptavidin-coated SPA beads by mixing primer and beads in assay buffer and incubating at room temperature for one hour. Unbound primer was removed after centrifugation. The primer-bound beads were resuspended in 20 mM Hepes buffer, pH 7.5 and used in the assay at final concentrations of 20 nM primer and 0.67 μg/μl beads. Order of addition in the assay: enzyme (14 nM) was added to diluted compound followed by the addition of a mixture of template (0.2 nM), 3H-UTP (0.6 μCi, 0.29 μM), and primer-bound beads, to initiate the reaction; concentrations given are final. Reactions were allowed to proceed for 4 hours at 30° C.
IC50 values for compounds were determined using seven different [I]. IC50 values were calculated from the inhibition using the formula y=A+((B−A)/(1+((C/x)^D))).

[3] = Hepatitis C virus, class symbol

| SMILES | EC50 [1, 3] [nM] | EC50 ([1]; Hepatitis C virus, exact value) [nM] | IC50 ([2]; class symbol) [nM] | IC50 ([2]; exact value) [nM] | EC50 ([1]; class symbol) [nM] |
| --- | --- | --- | --- | --- | --- |
| COc1ccc2c(c1)C=C(c1c(C(=O)N3CCOCC3)cnn1C1CCOCC1)Cn1c-2c(C2CCCCC2)c2ccc(C(=O)NS(=O)(=O)CC(C)C)cc21 | 1.7 to 500 | 8.4 | 1.7 to 500 | 4.2 |  |
| COc1ccc2c(c1)C=C(c1c(C(=O)N3C4CCCC3COC4)cnn1C1CCN(C)CC1)Cn1c-2c(C2CCCCC2)c2ccc(C(=O)NS(=O)(=O)C(C)C)cc21 | 1.7 to 500 |  | 1.7 to 500 |  |  |
| COc1ccc2c(c1)C=C(c1c(C(=O)N3C[C@@H]4C[C@H]3CN4)c(C)nn1C1CCC1)Cn1c-2c(C2CCCCC2)c2ccc(C(=O)NS(=O)(=O)C(C)C)cc21 | 1.7 to 500 |  | < 1.7 |  |  |
| COc1ccc2c(c1)C=C(c1c(C(=O)N3CCN(C)CC3)cnn1C1CCC1)Cn1c-2c(C2CCCCC2)c2ccc(C(=O)NS(=O)(=O)C(C)C)cc21 | 1.7 to 500 |  | 1.7 to 500 |  |  |
| COc1ccc2c(c1)C=C(c1nn(C3CC3)cc1C(=O)N1CCOCC1)Cn1c-2c(C2CCCCC2)c2ccc(C(=O)NS(=O)(=O)C(C)C)cc21 | 1.7 to 500 |  | 1.7 to 500 |  |  |
| COc1ccc2c(c1)C=C(c1c(C(=O)N3C4CCC3CN(C)C4)c(C)nn1C1CCC1)Cn1c-2c(C2CCCCC2)c2ccc(C(=O)NS(=O)(=O)N(C)C)cc21 | 1.7 to 500 |  | 1.7 to 500 |  |  |
| COc1ccc2c(c1)C=C(c1ncn(C3CC3)c1C(=O)N1CCOCC1)Cn1c-2c(C2CCCCC2)c2ccc(C(=O)NS(=O)(=O)C(C)C)cc21 | 1.7 to 500 | 8.8 | 1.7 to 500 | 2.4 |  |
| COc1ccc2c(c1)C=C(c1c(C(=O)N3C[C@@H](C)O[C@@H](C)C3)cnn1-c1ncccn1)Cn1c-2c(C2CCCCC2)c2ccc(C(=O)NS(=O)(=O)C(C)C)cc21 | 1.7 to 500 |  | 1.7 to 500 |  |  |
| COc1ccc2c(c1)C=C(c1c(C(=O)N3C[C@@H](C)O[C@@H](C)C3)cnn1C1CCC1)Cn1c-2c(C2CCCCC2)c2ccc(C(=O)NS(=O)(=O)N(C)C)cc21 [drawing 260] |  |  | 1.7 to 500 |  | 1.7 to 500 |
| CCN1C[C@H]2C[C@@H]1CN2C(=O)c1cnn(C2CCC2)c1C1=Cc2cc(OC)ccc2-c2c(C3CCCCC3)c3ccc(C(=O)NS(=O)(=O)C(C)C)cc3n2C1 | 1.7 to 500 |  | 1.7 to 500 |  |  |
| COc1ccc2c(c1)C=C(c1c(C(=O)N3C4CCC3CN(C)C4)cnn1C1CCC1)Cn1c-2c(C2CCCCC2)c2ccc(C(=O)NS(=O)(=O)CC(C)C)cc21 | 1.7 to 500 | 8.1 | 1.7 to 500 | 3.3 |  |
